Data as given in US7135572B2 (CJ Corp, priority 2001, dated 2006).

Tests used:
[1] = target: T1, cyclooxygenase-1 (Homo sapiens, UniProt P23219); test: Inhibition of cyclooxygenase-1 in U-937 cells (PGE2 quantitation); type: cell-based; conditions: U-937 cells
T1 construct: The cultured U-937 (humane lymphoma cell, obtained from Korean cell line bank) was centrifuged to collect the pellet; endogenous in cells; host or cells: U-937 (human lymphoma cell line, Korean cell line bank)
Procedure: (§1) In order to investigate pharmacologically the selective inhibition activity against cyclooxygenase-2 enzyme, the inhibitive effects against cyclooxygenase-1 and cyclooxygenase-2 were measured by two methods as follows.
Then, the pellet was diluted with 1×HBSS(Hank's balanced salt solutin) at the concentration of 1×10^6 cells/ml, and 1 ml of them was transferred into each well of 12-well plates, and then dissolved with DMSO. 5μl of the diluted sample solution, and 5μl of DMSO vehicle were added therein and mixed, and the mixture was cultured at 37° C. in Co2 incubator for 15 minutes. Arachidonic acid as a substrate was dissolved in ethanol to prepare a stock solution with a concentration of 10 mM, followed by diluting with 1×HBSS to prepare the solution of 1 mM. 10 μl of 1 mM Arachidonic acid solution was added to each of the treated wells, and the mixture was cultured at 37° C. in CO2 incubator for 30 minutes. The cell solution of each well was collected in the centrifuge tube and was centrifuged at 4° C. for 5 minutes at 10,000 rpm. As PGE2 existed in the supernatant separated from collected cell, the concentration of PGE2 was quantitated by using monoclonal kit from Cayman Chemicals, and the concentration of samples and vehicle were compared to estimate the inhibition ratio (%) of each compound against cyclooxygenase-1. Ultimately, the inhibition effect against the cyclooxygenase-1 enzyme was obtained from the result.

[2] = target: T2, cyclooxygenase-2 (Mus musculus, UniProt Q05769); test: Inhibition of cyclooxygenase-2 in Raw 264.7 cells treated with interferon γ and LPS (PGE2 EIA); type: cell-based; conditions: for Inhibitory effects of cyclooxygenase (COX): COX-2: Raw 264.7 cells; for selectivity of cyclooxygenase-2 compared with the comparative substance (in words): COX-2 versus COX-1
T2 construct: endogenous in cells; host or cells: Raw 264.7 (Korean cell line bank), aspirin-pretreated, induced with interferon gamma and LPS
T2 sequence (Q05769 18-604): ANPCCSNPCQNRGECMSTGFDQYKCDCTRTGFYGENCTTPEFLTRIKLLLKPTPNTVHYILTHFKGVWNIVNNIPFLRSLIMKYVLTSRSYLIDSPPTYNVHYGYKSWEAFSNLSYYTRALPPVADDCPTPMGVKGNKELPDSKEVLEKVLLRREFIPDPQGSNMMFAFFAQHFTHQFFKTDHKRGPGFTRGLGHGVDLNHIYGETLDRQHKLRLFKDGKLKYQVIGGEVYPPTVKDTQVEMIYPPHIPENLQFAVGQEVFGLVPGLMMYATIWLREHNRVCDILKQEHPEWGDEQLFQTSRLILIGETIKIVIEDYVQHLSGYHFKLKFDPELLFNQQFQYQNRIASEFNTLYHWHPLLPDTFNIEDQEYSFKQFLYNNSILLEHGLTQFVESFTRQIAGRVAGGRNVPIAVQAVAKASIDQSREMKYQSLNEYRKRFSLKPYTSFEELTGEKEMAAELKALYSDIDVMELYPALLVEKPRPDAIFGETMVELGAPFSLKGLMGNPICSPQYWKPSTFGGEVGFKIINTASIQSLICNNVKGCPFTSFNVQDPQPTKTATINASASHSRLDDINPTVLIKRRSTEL
Procedure: as §1
And then, each samples were replaced with new media and cultured for 30 minutes. In addition, the samples was treated with 100 units/ml of interferon Υ and 100 ng/ml of lipopolysaccharide(LPS), and cultured for 18 hours. Then, the media was transferred to other tubes and the PGE 2 was quantitated by using EIA kit from Cayman Chemicals.

T1 sequence (P23219 24-599): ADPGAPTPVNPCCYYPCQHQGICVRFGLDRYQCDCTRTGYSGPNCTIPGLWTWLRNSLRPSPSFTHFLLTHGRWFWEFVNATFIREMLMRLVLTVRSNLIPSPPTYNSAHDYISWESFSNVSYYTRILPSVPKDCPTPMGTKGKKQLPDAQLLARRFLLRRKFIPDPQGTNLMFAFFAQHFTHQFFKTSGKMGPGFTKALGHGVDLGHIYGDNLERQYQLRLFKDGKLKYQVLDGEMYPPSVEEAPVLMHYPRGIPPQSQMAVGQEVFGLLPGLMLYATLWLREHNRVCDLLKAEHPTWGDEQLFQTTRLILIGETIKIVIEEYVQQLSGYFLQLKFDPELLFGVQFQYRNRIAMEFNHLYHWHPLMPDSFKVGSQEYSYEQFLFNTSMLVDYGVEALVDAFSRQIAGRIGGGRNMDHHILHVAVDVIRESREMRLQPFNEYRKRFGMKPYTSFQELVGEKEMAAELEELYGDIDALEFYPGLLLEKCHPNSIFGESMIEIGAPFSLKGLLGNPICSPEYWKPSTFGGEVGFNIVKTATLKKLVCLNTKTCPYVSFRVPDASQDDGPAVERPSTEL

Row | Inhibitory effects of cyclooxygenase (COX): COX-1 ([1]; 3 μM) [% inhibition] | Inhibitory effects of cyclooxygenase (COX): COX-1 ([1]; 10 μM) [% inhibition] | Inhibitory effects of cyclooxygenase (COX): COX-1 ([1]; 30 μM) [% inhibition] | Inhibitory effects of cyclooxygenase (COX): COX-2 ([2]; 30 nM) [% inhibition] | Inhibitory effects of cyclooxygenase (COX): COX-2 ([2]; 100 nM) [% inhibition] | Inhibitory effects of cyclooxygenase (COX): COX-2 ([2]; 300 nM) [% inhibition] | selectivity of cyclooxygenase-2 compared with the comparative substance (in words) [2] | SMILES
1 | 42.0 | 51.2 | 55.1 | 20.1 | 47.7 | 64.0 | – | Cc1nc(-c2ccc(F)cc2)n(-c2ccc(S(C)(=O)=O)cc2)n1 [Example 26, 5-(4-fluoro-phenyl)-1-(4-methanesulfonyl-phenyl)-3-methyl-1H-[1,2,4]triazole]
2 | 12.1 | 25.9 | 53.1 | 48.5 | 50.0 | 81.4 | – | Cc1nc(-c2ccccc2)n(-c2ccc(S(N)(=O)=O)cc2)n1 [Example 1, 4-(3-methyl-5-phenyl-[1,2,4]triazole-1-yl)-benzenesulfonamide]
3 | 81.4 | 82.0 | 88.1 | 69.5 | 99.8 | 99.9 | hardly different | Cc1nc(-c2ccc(Br)cc2)n(-c2ccc(S(C)(=O)=O)cn2)n1 [Example 31, 2-[5-(4-bromo-phenyl)-3-methyl-[1,2,4]triazole-1-yl]-5-methanesulfonyl-pyridine]
4 | 21.1 | 24.4 | 28.1 | 54.3 | 55.0 | 55.3 | – | Cc1nc(-c2cccc(F)c2)n(-c2ccc(S(N)(=O)=O)cc2)n1 [Example 7, 4-[5-(3-fluoro-phenyl)-3-methyl-[1,2,4]triazole-1-yl]-benzenesulfonamide]
5 | 63.8 | 65.9 | 76.8 | 37.9 | 56.1 | 59.3 | – | COc1cc(OC)cc(-c2nc(C)nn2-c2ccc(S(N)(=O)=O)cc2)c1 [Example 13, 4-[5-(3,5-dimethoxy-phenyl)-3-methyl-[1,2,4]triazole-1-yl]-benzenesulfonamide]
6 | 35.7 | 41.0 | 46.9 | 27.1 | 28.8 | 38.9 | – | Cc1nc(-c2ccc(F)cc2)n(-c2ccc(S(N)(=O)=O)cn2)n1 [Example 15, 6-[5-(4-fluoro-phenyl)-3-methyl-[1,2,4]triazole-1-yl]-pyridine-3-sulfonic acid amide]
7 | 77.6 | 79.8 | 82.1 | 27.3 | 29.8 | 36.2 | – | Cc1nc(-c2ccc(Br)cc2)n(-c2ccc(S(C)(=O)=O)cc2)n1 [Example 30, 5-(4-bromo-phenyl)-1-(4-methanesulfonyl-phenyl)-3-methyl-1H-[1,2,4]triazole]
8 | 78.7 | 81.9 | 89.5 | 66.5 | 89.2 | 99.2 | hardly different | Cc1nc(-c2cccc(Br)c2)n(-c2ccc(S(N)(=O)=O)cc2)n1 [Example 9, 4-[5-(3-bromo-phenyl)-3-methyl-[1,2,4]triazole-1-yl]-benzenesulfonamide]
9 | 1.3 | 40.8 | 71.5 | 29.7 | 38.0 | 64.4 | – | Cc1nc(-c2ccccc2)n(-c2ccc(S(C)(=O)=O)cc2)n1 [Example 24, 1-(4-methanesulfony-phenyl)-3-methyl-5-phenyl-1H-[1,2,4]triazole]
10 | 85.6 | 87.7 | 91.1 | 64.2 | 99.0 | 99.8 | hardly different | Cc1nc(-c2ccc(Br)cc2)n(-c2ccc(S(N)(=O)=O)cc2)n1 [Example 4, 4-[5-(4-bromo-phenyl)-3-methyl-[1,2,4]triazole-1-yl]-benzenesulfonamide]

Row | SMILES | Inhibitory effects of cyclooxygenase (COX): COX-1 ([1]; 3 μM) [% inhibition] | Inhibitory effects of cyclooxygenase (COX): COX-1 ([1]; 10 μM) [% inhibition] | Inhibitory effects of cyclooxygenase (COX): COX-1 ([1]; 30 μM) [% inhibition] | Inhibitory effects of cyclooxygenase (COX): COX-2 ([2]; 30 nM) [% inhibition] | Inhibitory effects of cyclooxygenase (COX): COX-2 ([2]; 100 nM) [% inhibition] | Inhibitory effects of cyclooxygenase (COX): COX-2 ([2]; 300 nM) [% inhibition] | selectivity of cyclooxygenase-2 compared with the comparative substance (in words) [2]
11 | Cc1nc(-c2cccc(F)c2)n(-c2ccc(S(N)(=O)=O)cn2)n1 [Example 20, 6-[5-(3-fluoro-phenyl)-3-mehtyl-[1,2,4]triazole-1-yl]-pyridine-3-sulfonic acid amide] | 27.2 | 31.6 | 34.7 | 30.2 | 57.8 | 74.0 | –
12 | COc1ccc(-c2nc(C)nn2-c2ccc(S(N)(=O)=O)cc2)cc1 [Example 6, 4-[5-(4-methoxy-phenyl)-3-mehtyl-[1,2,4]triazole-1-yl]-benzenesulfonamide] | 78.6 | 85.6 | 94.5 | 68.8 | 99.2 | 99.9 | hardly different
13 | Cc1ccc(-c2nc(C)nn2-c2ccc(S(N)(=O)=O)cc2)cc1 [Example 5, 4-(3-methyl-5-p-toly-[1,2,4]triazole-1-yl)-benzenesulfonamide] | 48.6 | 61.1 | 79.7 | 45.3 | 53.3 | 75.2 | –
